Article PMC13702766, “Pharmacokinetic-Modifying Linker Design Modulates Performance of Multivalent PSMA/GRPR-Cell-Targeting ^177Lu Radiopharmaceuticals” (Cancers, 2026)

Target: T1, PSMA (Homo sapiens, UniProt Q04609)
T1 construct: LNCaP whole cells were prepared in suspension; host or cells: LNCaP human prostate carcinoma cells
Test: Whole-cell competitive binding assay in PSMA[+] LNCaP cells vs [177Lu]Lu-PSMA-617
Description: LNCaP whole cells were prepared in suspension (7.50 × 10^5 cells/mL) in binding media (DMEM + 0.2% BSA + 25 mM HEPES). […] Samples were incubated at room temperature for 60 min, centrifuged, and the supernatant was removed. Cell pellets were washed twice with ice-cold PBS and subsequently counted using an automated gamma counter. […] IC50 values were determined by nonlinear regression in GraphPad Prism, with all experiments performed in triplicate.

T1 sequence (Q04609 whole entry): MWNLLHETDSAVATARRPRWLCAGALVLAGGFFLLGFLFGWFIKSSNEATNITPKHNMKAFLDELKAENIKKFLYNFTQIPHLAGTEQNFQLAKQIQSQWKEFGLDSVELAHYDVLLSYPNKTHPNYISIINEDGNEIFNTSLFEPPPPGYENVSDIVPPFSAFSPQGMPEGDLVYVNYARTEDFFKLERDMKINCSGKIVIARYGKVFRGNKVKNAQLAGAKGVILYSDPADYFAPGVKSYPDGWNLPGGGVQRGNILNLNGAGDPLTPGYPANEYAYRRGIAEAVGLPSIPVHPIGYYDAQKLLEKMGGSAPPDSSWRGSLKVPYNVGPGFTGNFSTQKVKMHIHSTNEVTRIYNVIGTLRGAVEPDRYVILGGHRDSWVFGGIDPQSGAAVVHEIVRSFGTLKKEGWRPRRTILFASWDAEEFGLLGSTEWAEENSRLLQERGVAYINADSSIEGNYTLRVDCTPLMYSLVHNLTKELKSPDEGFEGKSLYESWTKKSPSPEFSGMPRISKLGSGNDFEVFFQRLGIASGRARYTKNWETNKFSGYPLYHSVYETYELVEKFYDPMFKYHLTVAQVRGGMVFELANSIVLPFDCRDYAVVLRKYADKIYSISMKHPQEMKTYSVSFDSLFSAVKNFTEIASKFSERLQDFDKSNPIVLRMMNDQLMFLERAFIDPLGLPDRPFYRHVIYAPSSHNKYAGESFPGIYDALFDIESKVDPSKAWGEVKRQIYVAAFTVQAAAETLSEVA

IC50: 2.7 ± 0.1 nM
SMILES: O=C(O)CC[C@H](NC(=O)N[C@@H](CCCCNC(=O)[C@H](Cc1ccc2ccccc2c1)NC(=O)[C@H]1CC[C@H](CNC(=O)CN2CCN(CC(=O)O)CCN(CC(=O)O)CCN(CC(=O)O)CC2)CC1)C(=O)O)C(=O)O [PSMA-617]
